# Test results as given in patent US9301528B2 (Rohm and Haas Company, priority 2012, dated 2016).
# Key:
# [1] = system: Stichococcus bacillaris SAG 379-1a / CCAP 379/1a; experiment: Algal efficacy testing of dry paint films (modified ASTM 5589, 6-well plates); type: cell-based; conditions: 3 weeks; for % inhibition: at the total conc, vs blank; for Total conc: total biocide conc in paint reported for pass level ≧75% inhibition (max tested 5000 ppm if no pass)
# Description: (§1) KATHON™ 893T (100% OIT) and ROCIMA™ 200 (20% DCOIT) were post added to a white, acrylic/silicone based outdoor paint free of biocides to give a total active ingredient concentration of 10000 and 1000 ppm respectively. These paints were then diluted with an antimicrobial free acrylic/silicone based paint and mixed to prepare targeted concentrations of antimicrobial compounds for the testing. The total biocides concentrations tested were 125, 250, 500, 1000, 2000 and 5000 ppm. After biocides addition or dilution, the paints were mixed 90 seconds with the horse power shaker (AXEL 75M3372/Agitateur SO-10MI) until uniformity was achieved. Paints containing different antimicrobial compounds at the same levels were mixed together in order to obtain the desired ratio of antimicrobial compounds. After one day, the paints were applied to Schleicher & Schuell filter paper at 280 μm wet film thickness and dried for 3 days at room temperature avoiding direct exposure to sunlight. Square discs (1.6 cm×1.6 cm) were cut out from each panel and were used as the substrate for algal efficacy tests. This sample size allowed for an agar border when the sample disc was placed into the well of the test plate.
# (§2) Algal efficacy was tested according to modified ASTM 5589 which is a standard accelerated test method for determining resistance of various coatings (including paints) to algal defacement. To accommodate for high-throughput screening, this method was scaled down from petri dishes to 6-well plates. Bold Modified Basal Freshwater Nutrient Solution was used as growth medium. A single coated filter paper coupon was placed with a pair of sterile forceps at the center of the agar plug (on top) with the painted surface facing upwards. Algal inoculums were prepared by mixing equal concentrations (1×10^6 cfu/ml) and equal volumes of exponentially growing algae cultures.
# (§3) Each well that contains a tested coupon was inoculated with 1750 μl of algal suspensions (1×10^6 cfu/ml) making sure that the whole surface (paint film as well as the agar surrounding it) was evenly covered. The plates were incubated at room temp (21° C.-25° C.) with cyclic exposure to light and dark phases, for a period of three weeks.
# (§4) At the end of the three week incubation period, the samples were scored for percent inhibition regarding visible algal growth compared to the blank sample (0% inhibition).
# (§5) The SI is calculated based on F. C.
# (§6) SI value of <1 in the formula indicates a synergism of the blended biocides exists.
# (§7) The minimal targeted inhibition was set at 75%, meaning a coupon with at least 75% algal growth inhibition was considered as a pass.
# Chlorella sp. ATCC 7516 = experiment: as above; type: cell-based; conditions: 3 weeks; for % inhibition: at the total conc, vs blank; for Total conc: total biocide conc in paint reported for pass level ≧75% inhibition (max tested 5000 ppm if no pass)
# Description: as §1, §2, §3, §4, §5, §6, §7
SMILES,% inhibition ([1]; OIT/Lenacil table) [%],Total conc ([1]; OIT/Lenacil table) [ppm],% inhibition (Chlorella sp. ATCC 7516; OIT/Lenacil table) [%],Total conc (Chlorella sp. ATCC 7516; OIT/Lenacil table) [ppm],% inhibition ([1]; DCOIT/Lenacil table) [%],Total conc ([1]; DCOIT/Lenacil table) [ppm],% inhibition (Chlorella sp. ATCC 7516; DCOIT/Lenacil table) [%],Total conc (Chlorella sp. ATCC 7516; DCOIT/Lenacil table) [ppm]
"CCCCCCCCn1sccc1=O [OIT, 2-n-octyl-4-isothiazolin-3-one]",90,500,95,1000,,,,
"CCCCCCCCn1sc(Cl)c(Cl)c1=O [DCOIT, 4,5-dichloro-2-n-octyl-4-isothiazolin-3-one]",,,,,95,1000,85,1000
"O=c1[nH]c2c(c(=O)n1C1CCCCC1)CCC2 [Lenacil, 3-cyclohexyl-1,5,6,7-tetrahydrocyclopentapyrimidine-2,4(3H)-dione]",30,5000,45,5000,70,5000,30,5000
